Results taken from patent publication US6479550B1, “α-sulfenimino acid derivatives” (priority 1999, dated 2002).

How the values were obtained:
[1] = tested on: Plasmopara viticola; test: D-1: Action against Plasmopara viticola on vines (residual-protective and residual-curative action); assay type: in vivo; conditions: vine seedlings, spray mixture 0.02% active ingredient; evaluated after 6 days at 95-100% relative humidity and 20° C.
Description: D-1: Action against Plasmopara viticola on Vines a) Residual-protective Action
Vine seedlings are sprayed at the 4- to 5-leaf stage with a spray mixture (0.02% active ingredient) prepared from a wettable powder formulation of the test compound. After 24 hours, the treated plants are infected with a sporangia suspension of the fungus. Fungus infestation is evaluated after incubation for 6 days at 95-100% relative humidity and 20° C. […]
b) Residual-curative Action
Vine seedlings are infected at the 4- to 5-leaf stage with a sporangia suspension of the fungus. After incubation for 24 hours in a humidity chamber at 95-100% relative humidity and 20° C., the infected plants are dried and sprayed with a spray mixture (0.02% active ingredient) prepared from a wettable powder formulation of the test compound. After the spray coating has dried, the treated plants are placed in the humidity chamber again. Fungus infestation is evaluated 6 days after infection.

[2] = tested on: Phytophthora; test: D-2: Action against Phytophthora on tomato plants (residual-protective and systemic action); assay type: in vivo; conditions: spray mixture 0.02% active ingredient, sprayed or watered, evaluated 4-5 days after infection at 90-100% relative humidity and 20° C.
Description: D-2: Action Against Phytophthora on Tomato Plants
(§1) a) Residual-protective Action
After a cultivation period of 3 weeks, tomato plants are sprayed with a spray mixture (0.02% active ingredient) prepared from a wettable powder formulation of the test compound. After 48 hours, the treated plants are infected with a sporangia suspension of the fungus. Fungus infestation is evaluated after incubation of the infected plants for 5 days at 90-100% relative humidity and 20° C.
After a cultivation period of 3 weeks, tomato plants are watered with a spray mixture (0.02% active ingredient based on the volume of the soil) prepared from a wettable powder formulation of the test compound. […] After 96 hours, the treated plants are infected with a sporangia suspension of the fungus. Fungus infestation is evaluated after incubation of the infected plants for 4 days at 90-100% relative humidity and 20° C.

[3] = tested on: Phytophthora; test: D-3: Action against Phytophthora on potato plants (residual-protective and systemic action); assay type: in vivo; conditions: potato plants (Bintje variety), spray mixture 0.02% active ingredient, sprayed or watered; evaluated after 4 days at 90-100% relative humidity and 20° C.
Description: D-3: Action Against Phytophthora on Potato Plants
as §1
2-3 week old potato plants (Bintje variety) are sprayed with a spray mixture (0.02% active ingredient) prepared from a wettable powder formulation of the test compound. After 48 hours, the treated plants are infected with a sporangia suspension of the fungus. Fungus infestation is evaluated after incubation of the infected plants for 4 days at 90-100% relative humidity and 20° C.
2-3 week old potato plants (Bintje variety) are watered with a spray mixture (0.02% active ingredient based on the volume of the soil) prepared from a wettable powder formulation of the test compound. […] After 48 hours, the treated plants are infected with a sporangia suspension of the fungus. Fungus infestation is evaluated after incubation of the infected plants for 4 days at 90-100% relative humidity and 20° C.

Row | Structure (SMILES) | Fungus infestation (fungicidal action against Plasmopara viticola on vines) [1] | melting point | Fungus infestation (action against Phytophthora on tomato plants) [2] | Fungus infestation (fungicidal action against Phytophthora on potatoes) [3]
1 | COc1ccc(CCNC(=O)C(=NSC)c2ccc(-c3ccc(C)cc3)cc2)cc1OC [Compound 11.171, 2-[4-(4-methyl-phenyl)-phenyl]-N-[2-(3,4-di-methoxy-phenyl)-ethyl]-2-methylthioimino-acetamide] | completely inhibit fungal infestation | 40 to 47 °C | – | –
2 | COc1ccc(CCNC(=O)C(=NSC)c2ccc(-c3ccc(C(C)(C)C)cc3)cc2)cc1OC [Compound 11.351, 2-[4-(4-tert.-butyl-phenyl)-phenyl]-N-[2-(3,4-di-methoxy-phenyl)-ethyl]-2-methylthioimino-acetamide] | completely inhibit fungal infestation | 45 to 52 °C | – | –
3 | C#CCOc1ccc(CCNC(=O)C(=NSC)c2ccc(Cl)cc2)cc1OC [Compound 14.001, 2-(4-chloro-phenyl)-N-[2-(3-methoxy-4-prop-2-ynyloxy-phenyl)-ethyl]-2-methylthioimino-acetamide] | completely inhibit fungal infestation | – | completely inhibit fungal infestation | completely inhibit fungal infestation
4 | C#CCOc1ccc(CCNC(=O)C(=NSC)c2ccc(Cl)c(Cl)c2)cc1OC [Compound 14.011, 2-(3,4-dichloro-phenyl)-N-[2-(3-methoxy-4-prop-2-ynyloxy-phenyl)-ethyl]-2-methylthioimino-acetamide] | completely inhibit fungal infestation | – | completely inhibit fungal infestation | completely inhibit fungal infestation
5 | C#CCOc1ccc(CCNC(=O)C(=NSC)c2ccc(Br)cc2)cc1OC [Compound 14.031, 2-(4-bromo-phenyl)-N-[2-(3-methoxy-4-prop-2-ynyloxy-phenyl)-ethyl]-2-methylthioimino-acetamide] | completely inhibit fungal infestation | – | completely inhibit fungal infestation | –
6 | CC#COc1ccc(CCNC(=O)C(=NSC)c2ccc(C)cc2)cc1OC [Compound 14.041, N-[2-(3-methoxy-4-prop-ynyloxy-phenyl)-ethyl]-2-methylthioimino-2-(4-tolyl)-acetamide] | completely inhibit fungal infestation | – | completely inhibit fungal infestation | completely inhibit fungal infestation
7 | C#CCOc1ccc(CCNC(=O)C(=NSC)c2ccc(OC)cc2)cc1OC [Compound 14.051, 2-(4-methoxy-phenyl)-N-[2-(3-methoxy-4-prop-2-ynyloxy-phenyl)-ethyl]-2-methylthioimino-acetamide] | completely inhibit fungal infestation | – | – | –
8 | C#CCOc1ccc(CCNC(=O)C(=NSC)c2ccc(F)cc2)cc1OC [Compound 14.071, 2-(4-fluoro-phenyl)-N-[2-(3-methoxy-4-prop-2-ynyloxy-phenyl)-ethyl]-2-methylthioimino-acetamide] | completely inhibit fungal infestation | – | – | –
9 | C#CCOc1ccc(CCNC(=O)C(=NSC)c2ccc3ccccc3c2)cc1OC [Compound 14.121, N-[2-(3-methoxy-4-prop-ynyloxy-phenyl)-ethyl]-2-naphthalen-2-yl-2-methylthioimino-2-acetamide] | completely inhibit fungal infestation | – | – | –
